Measured values from US20230114728A1 (Venatorx Pharmaceuticals, Inc., priority 2019, published 2023).
Values after ≈ are worked out from the molar mass of the structure shown.

Columns and labels:
P. aeruginosa PBP3 = biological target: T1, P. aeruginosa PBP3 (Pseudomonas aeruginosa, UniProt G3XD46); assay: Bocillin-FL fluorescence polarization competition binding assay, P. aeruginosa PBP3; details: fluorescence polarization competition binding assay using Bocillin-FL
T1 construct: made in house
Summary of the method: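 Inhibitor competition with Bocillin-FL for P. aeruginosa PBP3 was followed by fluorescence polarization on a Cytation3 (BioTek) reader, using g-factor 0.96, 490 nm excitation and 520 nm emission. The enzyme was at 0.75 μM and the probe at 0.1 μM in Hepes/NaCl/glycerol buffer, 80 μl per well. FP was recorded immediately after probe addition for up to 60 minutes. Potency was expressed as EC50, the concentration that reduces bound probe by 50%.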

E. coli K12 PBP3 = biological target: T2, E. coli K12 PBP3 (Escherichia coli, UniProt P0AD68); assay: biochemical; type: binding
T2 construct: made in house
Summary of the method: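 A. baumannii PBP2 (2.5 μM) and PBP3 (0.2 μM) were run in 25 mM Tris pH 8.0 buffer with Tween 20; E. coli PBP3 (1.5 μM) and N. gonorrhoeae PBP2 ([…]) in 50 mM Hepes pH 8.0 buffer.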

P. aeruginosa ATCC 35151 = assay: Broth microdilution MIC in CAMHB; type: cell-based; details: Pseudomonas aeruginosa, ATCC35151; MHB; hyper-permeable strain; read-out: Minimum Inhibitory Concentration, P. aeruginosa ATCC 35151
Summary of the method: (§1)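 Hyper-permeable or efflux-deficient strains serve to probe outer-membrane penetration. Growth inhibition is scored visually after 16-20 h at 37° C in CAMHB, starting from 2-8×10^5 CFU/mL.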

E. coli D22 = assay: Broth microdilution MIC in CAMHB; type: cell-based; details: Escherichia coli; E. coli D22 (hyper-permeable); MHB; read-out: Minimum Inhibitory Concentration, E. coli D22
Summary of the method: as §1

A. baumannii ATCC 19606 = assay: Broth microdilution MIC in CAMHB; type: cell-based; details: Acinetobacter baumannii, ATCC19606; MHB; read-out: Minimum Inhibitory Concentration, A. baumannii ATCC 19606
Summary of the method: as §1

E. coli AG100A = assay: Broth microdilution MIC in CAMHB; type: cell-based; details: Escherichia coli, read-out: Minimum Inhibitory Concentration, E. coli AG100A
Summary of the method: as §1

E. coli AG100 = assay: Broth microdilution MIC in CAMHB; type: cell-based; details: Escherichia coli; E. coli AG100 (wild-type parent); MHB; read-out: Minimum Inhibitory Concentration, E. coli AG100
Summary of the method: as §1

[1] = test system: K. pneumoniae UMM producing SHV-5 and KPC-2; assay: Broth microdilution MIC in CAMHB; type: cell-based; details: Klebsiella pneumoniae, read-out: Minimum Inhibitory Concentration, K. pneumoniae UMM
Summary of the method: as §1

E. coli ATCC 25922 = assay: Broth microdilution MIC in CAMHB; type: cell-based; details: Escherichia coli, ATCC25922; E. coli ATCC 25922; MHB; read-out: Minimum Inhibitory Concentration, E. coli 25922
Summary of the method: as §1

[2] = test system: P. aeruginosa (ΔmexAB-oprM); assay: Broth microdilution MIC in CAMHB; type: cell-based; details: Pseudomonas aeruginosa, read-out: Minimum Inhibitory Concentration, P. aeruginosa ΔmexAB-OprM
Summary of the method: as §1

E. coli 901C = assay: Broth microdilution MIC in CAMHB; type: cell-based; details: Escherichia coli; E. coli 901C (hyper-permeable); MHB; read-out: Minimum Inhibitory Concentration, E. coli 901C
Summary of the method: as §1

[3] = test system: K. pneumoniae 848844 producing SHV-11 and KPC-2; assay: Broth microdilution MIC in CAMHB; type: cell-based; details: Klebsiella pneumoniae, read-out: Minimum Inhibitory Concentration, K. pneumoniae 848844
Summary of the method: as §1

[4] = test system: K. pneumoniae SI-117 producing VIM-1; assay: Broth microdilution MIC in CAMHB; type: cell-based; details: Klebsiella pneumoniae, read-out: Minimum Inhibitory Concentration, K. pneumoniae SI-117
Summary of the method: as §1

P. aeruginosa ATCC 27853 = assay: Broth microdilution MIC in CAMHB; type: cell-based; details: Pseudomonas aeruginosa, ATCC27853; MHB; read-out: Minimum Inhibitory Concentration, P. aeruginosa ATCC 27853
Summary of the method: as §1

[5] = Bocillin-FL fluorescence polarization competition binding assay, A. baumannii PBP3; details: fluorescence polarization competition binding assay using Bocillin-FL; column 3; read-out: 4. baumannii PBP1a Potency
Text: (§2) Example I: Experimental Method for Penicillin-Binding Protein Binding Assays with Bocillin-FL Via Fluorescence Polarization
(§3) To determine the ability of boronic acid-based test PBP inhibitors to bind Penicillin Binding Proteins (PBPs), Bocillin-FL (fluorescently-labeled penicillin V; ThermoFisher Scientific) was used in a fluorescence polarization (FP) competition binding assay to assess inhibitor binding to PBP2, PBP3 or PBP4 from Escherichia coli (K12), PBP3 from Pseudomonas aeruginosa (PA01), PBP1a, PBP2 and PBP3 from Acinetobacter baumannii (ATCC 19606), and PBP2 from Neiserria gonorrheae (FA19). PBPs were cloned and purified as described previously (E. coli PBPs, King, D. T, et al., ACS Infectious Diseases 2015, 1, 175-184; P. aeruginosa PBP3, Han et. al., PNAS 2010, 107 (51), 22002-22007; A. baumannii PBPs, Penwell et. al., Antimicrob. Agents Chemother. 2015, 59 (3), 1680-1689; N. gonorrhoeae PBP2, Singh et. al., J Biol. Chem. 2019, 294 (38), 14020-14032). To establish assay conditions for competition binding, enzyme titration/saturation binding experiments were initially performed. Bocillin-FL was prepared at 0.2 μM in a buffer comprised of 50 mM Hepes (pH 8.0), 300 mM NaCl and 5% (v/v) glycerol for reactions with E. coli, P. aeruginosa and N. gonorrhoeae PBPs, and 25 mM Tris (pH 8.0), 200 mM NaCl and 10% (v/v) glycerol and 0.005% (v/v) Tween 20 for reactions with A. baumannii PBPs. Saturation binding was performed by mixing 40 μl of PBP solutions ranging in concentrations from 0-24 μM with 40 μl of the 0.2 μM Bocillin-FL solution, in individual wells of a black 384-well microplate. FP was measured immediately upon mixing (Excitation, 490 nm; Emission, 520 nm; g-factor, 0.96), using a Cytation3 (BioTek) microplate reader and measured continuously for up to 120 minutes. […] The competition binding assay (80 μl final volume) was validated using beta-lactams and PBPs at final concentrations of: 1.5 μM, E. coli PBP3; 0.75 μM, P. aeruginosa PBP3; 1 μM A. baumannii PBP1a; 2.5 μM A. baumannii PBP2; 0.2 μM A. baumannii PBP3; and […] N. gonorrhoeae PBP2. Bocillin-FL was at 0.1 μM (0.05 μM with A. baumannii PBP1a) and beta-lactam concentrations ranged from 0-1000 μM. […] Bocillin-FL was added and the FP immediately measured for up to 60 minutes (90 minutes for E. coli PBP2). […] The beta-lactam potency was reported as the concentration of beta-lactam required to reduce the amount of PBP bound-Bocillin-FL by 50% (EC50). […] Binding assays for boronic acid PBP inhibitors were performed in an identical fashion for the respective PBPs

N. gonorrhoeae PBP2 = biological target: T3, N. gonorrhoeae PBP2 (Neisseria gonorrhoeae, UniProt P08149); assay: Bocillin-FL fluorescence polarization competition binding assay, N. gonorrhoeae PBP2; details: N. gonorrhoeae PBP2; assay validation with beta-lactams; read-out: EC50 (concentration of beta-lactam required to reduce the amount of PBP bound-Bocillin-FL by 50%)
T3 construct: made in house
Text: as §2, §3

T1 sequence (G3XD46 whole entry): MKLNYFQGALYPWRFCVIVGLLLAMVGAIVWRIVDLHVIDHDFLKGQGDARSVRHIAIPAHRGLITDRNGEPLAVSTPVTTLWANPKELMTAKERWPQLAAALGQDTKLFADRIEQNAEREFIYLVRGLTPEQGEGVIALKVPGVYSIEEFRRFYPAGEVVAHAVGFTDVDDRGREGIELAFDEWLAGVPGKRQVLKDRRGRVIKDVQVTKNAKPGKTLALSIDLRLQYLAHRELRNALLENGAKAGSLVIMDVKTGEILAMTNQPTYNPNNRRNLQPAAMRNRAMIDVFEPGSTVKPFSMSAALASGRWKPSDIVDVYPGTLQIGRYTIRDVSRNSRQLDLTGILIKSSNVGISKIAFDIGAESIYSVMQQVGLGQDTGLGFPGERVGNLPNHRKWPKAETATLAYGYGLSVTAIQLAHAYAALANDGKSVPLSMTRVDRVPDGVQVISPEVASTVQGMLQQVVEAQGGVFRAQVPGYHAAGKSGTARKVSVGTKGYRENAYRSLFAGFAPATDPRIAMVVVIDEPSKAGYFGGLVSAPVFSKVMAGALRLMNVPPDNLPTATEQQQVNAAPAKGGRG
T2 sequence (P0AD68 1-577): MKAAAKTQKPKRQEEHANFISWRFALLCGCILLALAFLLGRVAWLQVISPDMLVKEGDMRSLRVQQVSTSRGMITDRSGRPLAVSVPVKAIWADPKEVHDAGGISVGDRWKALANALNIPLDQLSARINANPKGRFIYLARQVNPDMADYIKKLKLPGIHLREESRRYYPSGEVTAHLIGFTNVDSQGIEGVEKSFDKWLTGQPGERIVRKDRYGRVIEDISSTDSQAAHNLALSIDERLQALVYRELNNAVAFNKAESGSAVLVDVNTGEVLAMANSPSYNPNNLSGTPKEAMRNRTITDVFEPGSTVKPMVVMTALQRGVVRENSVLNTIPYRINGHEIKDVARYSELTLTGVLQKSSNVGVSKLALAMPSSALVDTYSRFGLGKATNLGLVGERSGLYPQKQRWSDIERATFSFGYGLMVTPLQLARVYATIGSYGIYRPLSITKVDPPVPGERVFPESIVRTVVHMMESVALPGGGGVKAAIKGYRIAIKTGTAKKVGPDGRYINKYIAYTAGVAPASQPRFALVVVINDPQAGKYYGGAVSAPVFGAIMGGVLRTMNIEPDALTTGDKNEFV
T3 sequence (P08149 whole entry): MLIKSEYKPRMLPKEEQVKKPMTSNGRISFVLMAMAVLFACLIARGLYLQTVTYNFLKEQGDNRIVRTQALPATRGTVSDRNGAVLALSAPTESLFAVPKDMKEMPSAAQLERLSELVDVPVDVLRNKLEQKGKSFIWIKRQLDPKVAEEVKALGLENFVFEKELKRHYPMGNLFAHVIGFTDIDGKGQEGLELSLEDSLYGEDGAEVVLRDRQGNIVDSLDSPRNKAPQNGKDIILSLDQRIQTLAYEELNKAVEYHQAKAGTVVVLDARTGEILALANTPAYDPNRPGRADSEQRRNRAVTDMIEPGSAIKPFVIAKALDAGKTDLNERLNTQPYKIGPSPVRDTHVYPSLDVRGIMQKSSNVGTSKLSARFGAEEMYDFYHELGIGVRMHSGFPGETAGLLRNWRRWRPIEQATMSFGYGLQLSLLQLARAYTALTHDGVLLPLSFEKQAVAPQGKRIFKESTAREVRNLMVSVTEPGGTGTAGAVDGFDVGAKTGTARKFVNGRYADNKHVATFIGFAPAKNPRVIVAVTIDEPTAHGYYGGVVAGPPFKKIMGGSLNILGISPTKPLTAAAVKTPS

Row | SMILES | P. aeruginosa PBP3 Potency (P. aeruginosa PBP3) | EC50 (E. coli K12 PBP3) [µM] | MIC (P. aeruginosa ATCC 35151) [µg/mL] | MIC (E. coli D22) [µg/mL] | MIC (A. baumannii ATCC 19606) [µg/mL] | MIC (E. coli AG100A) [µg/mL] | MIC (E. coli AG100) [µg/mL] | MIC [1] [µg/mL] | MIC (E. coli ATCC 25922) [µg/mL] | MIC [2] [µg/mL] | MIC (E. coli 901C) [µg/mL] | MIC [3] [µg/mL] | MIC [4] [µg/mL] | MIC (P. aeruginosa ATCC 27853) [µg/mL] | EC50 [5] [µM] | EC50 (N. gonorrhoeae PBP2) [µM]
1 | NCCCN1CCN(C(=O)N[C@@H](C(=O)N[C@H]2Cc3cccc(C(=O)O)c3OB2O)c2ncc(O)cc2F)C(=O)C1=O [Example 13, (R)-3-((R)-2-(4-(3-aminopropyl)-2,3-dioxopiperazine-1-carboxamido)-2-(3-fluoro-5-hydroxypyridin-2-yl)acetamido)-2-hydroxy-3,4-dihydro-2H-benzo[e][1,2]oxaborinine-8-carboxylic acid] | D (D represents a potency <10 μM) | < 30 | < 0.25 | 2 to 4 (≈ 3.49 to 6.99 µM) | > 128 | 0.5 to 1 (≈ 0.874 to 1.75 µM) | 8 to 16 (≈ 14 to 28 µM) | 8 to 16 (≈ 14 to 28 µM) | 8 to 16 (≈ 14 to 28 µM) | 2 to 4 (≈ 3.49 to 6.99 µM) | 0.5 to 1 (≈ 0.874 to 1.75 µM) | 32 to 64 (≈ 55.9 to 112 µM) | 8 to 16 (≈ 14 to 28 µM) | 32 to 64 (≈ 55.9 to 112 µM) | < 10 | –
2 | C[C@H]1CN(CCN)C(=O)C(=O)N1C(=O)N[C@@H](C(=O)N[C@H]1Cc2cccc(C(=O)O)c2OB1O)c1ncc(O)cc1F [Example 14, (R)-3-((R)-2-((S)-4-(2-aminoethyl)-6-methyl-2,3-dioxopiperazine-1-carboxamido)-2-(3-fluoro-5-hydroxypyridin-2-yl)acetamido)-2-hydroxy-3,4-dihydro-2H-benzo[e][1,2]oxaborinine-8-carboxylic acid] | D (D represents a potency <10 μM) | < 30 | 0.5 to 1 (≈ 0.874 to 1.75 µM) | 2 to 4 (≈ 3.49 to 6.99 µM) | > 128 | 0.5 to 1 (≈ 0.874 to 1.75 µM) | 8 to 16 (≈ 14 to 28 µM) | 8 to 16 (≈ 14 to 28 µM) | 8 to 16 (≈ 14 to 28 µM) | 8 to 16 (≈ 14 to 28 µM) | 0.5 to 1 (≈ 0.874 to 1.75 µM) | 32 to 64 (≈ 55.9 to 112 µM) | 32 to 64 (≈ 55.9 to 112 µM) | > 128 | < 10 | –
3 | NCCCN1CCN(C(=O)N[C@@H](C(=O)N[C@H]2Cc3ccc(F)c(C(=O)O)c3OB2O)c2ncc(O)cc2F)C(=O)C1=O [Example 16, (R)-3-((R)-2-(4-(3-aminopropyl)-2,3-dioxopiperazine-1-carboxamido)-2-(3-fluoro-5-hydroxypyridin-2-yl)acetamido)-7-fluoro-2-hydroxy-3,4-dihydro-2H-benzo[e][1,2]oxaborinine-8-carboxylic acid] | D (D represents a potency <10 μM) | < 30 | < 0.25 | 2 to 4 (≈ 3.39 to 6.78 µM) | > 128 | 8 to 16 (≈ 13.6 to 27.1 µM) | 8 to 16 (≈ 13.6 to 27.1 µM) | 32 to 64 (≈ 54.2 to 108 µM) | 8 to 16 (≈ 13.6 to 27.1 µM) | 8 to 16 (≈ 13.6 to 27.1 µM) | 2 to 4 (≈ 3.39 to 6.78 µM) | 32 to 64 (≈ 54.2 to 108 µM) | 32 to 64 (≈ 54.2 to 108 µM) | 32 to 64 (≈ 54.2 to 108 µM) | 30 to 100 | –
4 | C=CC1=C(C(=O)O)N2C(=O)[C@@H](NC(=O)/C(=N\OCC(=O)O)c3csc(N)n3)[C@H]2SC1 [cefixime, reference compound] | – | – | – | – | – | – | – | – | – | – | – | – | – | – | – | 0.26
